{
  "source": "patent US5051405A",
  "about": "“Anti-thrombotic peptides and pseudopeptides” (Rhone-Poulenc Rorer Pharmaceuticals Inc., priority 1989, dated 1991)",
  "key": {"[1]": {"target": "Human Platelets (Homo sapiens, UniProt P05106+P08514)", "sequence (P08514 32-1039)": "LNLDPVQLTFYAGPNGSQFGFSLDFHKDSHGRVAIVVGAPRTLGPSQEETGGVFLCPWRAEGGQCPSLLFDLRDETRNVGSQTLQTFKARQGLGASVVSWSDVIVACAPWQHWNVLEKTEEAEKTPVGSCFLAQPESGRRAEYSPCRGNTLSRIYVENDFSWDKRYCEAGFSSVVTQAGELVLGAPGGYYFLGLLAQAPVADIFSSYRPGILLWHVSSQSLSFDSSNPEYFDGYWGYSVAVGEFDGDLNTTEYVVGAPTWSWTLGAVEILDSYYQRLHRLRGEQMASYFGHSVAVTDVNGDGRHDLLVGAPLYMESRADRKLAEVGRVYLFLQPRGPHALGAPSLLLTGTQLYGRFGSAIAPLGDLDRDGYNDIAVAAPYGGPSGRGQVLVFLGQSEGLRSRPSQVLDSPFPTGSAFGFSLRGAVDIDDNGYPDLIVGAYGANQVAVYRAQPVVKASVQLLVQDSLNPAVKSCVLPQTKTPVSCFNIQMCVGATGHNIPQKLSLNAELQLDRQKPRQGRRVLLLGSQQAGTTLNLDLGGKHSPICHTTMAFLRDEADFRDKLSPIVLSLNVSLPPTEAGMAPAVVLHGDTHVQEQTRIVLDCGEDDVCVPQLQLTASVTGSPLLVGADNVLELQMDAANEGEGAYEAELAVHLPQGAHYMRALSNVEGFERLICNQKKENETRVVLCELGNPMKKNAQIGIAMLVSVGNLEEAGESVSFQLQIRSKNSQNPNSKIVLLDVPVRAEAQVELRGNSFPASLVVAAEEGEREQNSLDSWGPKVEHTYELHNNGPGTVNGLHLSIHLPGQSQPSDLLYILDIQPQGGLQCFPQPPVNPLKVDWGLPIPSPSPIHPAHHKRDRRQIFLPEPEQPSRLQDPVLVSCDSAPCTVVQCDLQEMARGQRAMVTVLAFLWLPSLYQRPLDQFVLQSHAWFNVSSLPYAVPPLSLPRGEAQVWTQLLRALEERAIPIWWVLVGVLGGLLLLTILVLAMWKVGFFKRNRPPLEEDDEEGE", "sequence (P05106 27-788)": "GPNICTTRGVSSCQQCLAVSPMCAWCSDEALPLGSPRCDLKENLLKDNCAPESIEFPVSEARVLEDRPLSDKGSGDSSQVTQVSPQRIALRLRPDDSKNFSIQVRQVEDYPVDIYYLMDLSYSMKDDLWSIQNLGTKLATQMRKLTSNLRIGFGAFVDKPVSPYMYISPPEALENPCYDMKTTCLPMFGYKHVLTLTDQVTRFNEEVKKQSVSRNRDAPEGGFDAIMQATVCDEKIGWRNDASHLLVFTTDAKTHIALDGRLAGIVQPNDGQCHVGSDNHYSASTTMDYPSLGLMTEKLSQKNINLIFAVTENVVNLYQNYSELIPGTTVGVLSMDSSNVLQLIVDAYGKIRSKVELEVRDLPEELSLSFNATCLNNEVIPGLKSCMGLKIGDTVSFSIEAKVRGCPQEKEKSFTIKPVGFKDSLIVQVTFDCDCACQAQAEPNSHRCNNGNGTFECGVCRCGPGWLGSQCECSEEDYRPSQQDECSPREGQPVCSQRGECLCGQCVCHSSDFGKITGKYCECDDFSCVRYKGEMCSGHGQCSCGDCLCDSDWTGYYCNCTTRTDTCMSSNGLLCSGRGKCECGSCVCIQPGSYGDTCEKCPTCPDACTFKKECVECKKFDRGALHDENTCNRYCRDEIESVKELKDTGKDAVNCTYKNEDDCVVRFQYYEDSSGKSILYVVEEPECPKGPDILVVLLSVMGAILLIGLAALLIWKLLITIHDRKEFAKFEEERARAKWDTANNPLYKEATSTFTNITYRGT", "assay": "Inhibition of fibrinogen-mediated platelet aggregation", "type": "cell-based", "conditions": "compound at 100 μM; thrombin-activated human platelets, human fibrinogen added", "experimental": "II. Inhibition of Fibrinogen - Mediated Platelet Aggregation, which is essentially based on the method described in Blood, Vol. 66, No. 4, Oct. 1985, pp. 946-952, and is as follows.\nHuman Platelets were isolated from freshly drawn whole blood and were suspended in 0.14 mol/L NaCl, 2.7 mmol/L […], 12 mmol/L NaHCO3, 0.42 mmol/L Na2 HPO4, 0.55 mmol/L glucose, and 5 mmol/L Hepes, pH 7.35 at 2×10^8 platelets/ml. The suspension was incubated at 37° C. An aliquot of 0.4 ml of platelet suspension was activated by human thrombin at a final concentration of 2 μg/ml of thrombin for one minute. After one minute the reaction was stopped by a thrombin inhibitor. Serial dilution of the compound being tested was then added to the activated platelet, the reaction was allowed to proceed for one minute, followed by the addition of human fibrinogen at a final concentration of […] of fibrinogen. Platelet aggregation was then recorded by an aggregometer. Rate of aggregation was used to calculate IC50."}, "[2]": {"target": "T1, fibrinogen binding to thrombin-stimulated platelets (GPIIb/IIIa fibrinogen receptor) (Homo sapiens, UniProt P05106+P08514)", "T1 construct": "endogenous in cells; host or cells: washed platelets, thrombin-stimulated", "T1 sequence (P08514 32-887 limits assumed)": "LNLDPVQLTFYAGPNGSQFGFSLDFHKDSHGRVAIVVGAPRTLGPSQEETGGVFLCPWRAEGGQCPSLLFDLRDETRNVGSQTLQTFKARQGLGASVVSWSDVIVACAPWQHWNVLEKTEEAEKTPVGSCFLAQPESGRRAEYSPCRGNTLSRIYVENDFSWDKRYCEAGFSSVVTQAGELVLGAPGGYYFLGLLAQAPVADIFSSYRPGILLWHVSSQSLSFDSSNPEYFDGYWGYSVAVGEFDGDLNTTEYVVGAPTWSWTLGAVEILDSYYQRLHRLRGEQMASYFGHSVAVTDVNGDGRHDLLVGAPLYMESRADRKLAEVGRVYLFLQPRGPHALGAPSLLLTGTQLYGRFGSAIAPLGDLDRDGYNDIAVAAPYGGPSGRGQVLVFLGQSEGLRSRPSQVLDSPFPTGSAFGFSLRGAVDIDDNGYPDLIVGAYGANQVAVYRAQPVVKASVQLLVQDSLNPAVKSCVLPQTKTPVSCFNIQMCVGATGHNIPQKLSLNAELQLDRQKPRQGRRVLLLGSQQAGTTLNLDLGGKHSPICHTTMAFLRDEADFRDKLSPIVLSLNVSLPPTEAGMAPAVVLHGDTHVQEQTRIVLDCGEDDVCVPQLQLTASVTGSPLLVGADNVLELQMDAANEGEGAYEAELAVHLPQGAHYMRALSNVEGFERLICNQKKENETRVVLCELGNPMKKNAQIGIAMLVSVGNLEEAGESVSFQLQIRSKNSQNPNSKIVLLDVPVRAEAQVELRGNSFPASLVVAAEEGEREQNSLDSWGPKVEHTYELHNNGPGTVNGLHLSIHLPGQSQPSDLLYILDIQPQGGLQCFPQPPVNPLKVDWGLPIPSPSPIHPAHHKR", "T1 sequence (P08514 891-1039 limits assumed)": "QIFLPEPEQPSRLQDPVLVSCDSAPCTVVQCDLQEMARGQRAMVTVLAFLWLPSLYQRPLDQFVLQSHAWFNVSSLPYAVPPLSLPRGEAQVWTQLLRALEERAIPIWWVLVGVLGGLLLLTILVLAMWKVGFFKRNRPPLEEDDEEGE", "T1 sequence (P05106 27-788)": "as the sequence (P05106 27-788) above", "assay": "Inhibition of radiolabeled (125I) fibrinogen binding assay", "conditions": "thrombin-stimulated washed platelets; 125I-fibrinogen held at 0.176 μmol/liter (60 μg/ml); 22°-25° C.", "experimental": "I. Inhibition of Radiolabeled (^125 I) Fibrinogen Binding Assay, which is essentially based on the method described in Proc. Natl. Acad. Sci. U.S.A. Vol. 83, pp. 5708-5712, August 1986, and is as follows.\nPlatelets are washed free of plasma constituents by the albumin density-gradient technique. In each experimental mixture platelets in modified Tyrode's buffer are stimulated with human α-thrombin at 22°-25° C. for 10 minutes (3.125×10\" platelets per liter and thrombin at […]). Hirudin is then added at a 25-fold excess for 5 minutes before addition of the radiolabeled ligand and any competing ligand. After these additions, the final platelet count in the mixture is 1×10\"/liter. After incubation for an additional 30 minutes at 22°-25° C., bound and free ligand are separated by centrifuging 50 μl of the mixture through 300 μl of 20% sucrose at 12,000 xg for 4 minutes. The platelet pellet is then separated from the rest of the mixture to determine platelet-bound radioactivity. Nonspecific binding is measured in mixtures containing an excess of unlabeled ligand. When binding curves are analyzed by Scatchard analysis, nonspecific binding is derived as a fitted parameter from the binding isotherm by means of a computerized program. To determine the concentration of each inhibitory compound necessary to inhibit 50% of fibrinogen binding to thrombin-stimulated platelets (IC50), each compound is tested at 6 or more concentrations with ^125 I-labeled fibrinogen held at 0.176 μmol/liter (60 μg/ml). The IC50 is derived by plotting residual fibrinogen binding against the logarithm of the sample compound's concentration."}},
  "note": "Where a SMILES comes first, the peptide text is derived from it. [ ]: non-standard residue; d: D form. Inp = O=C(O)C1CCNCC1",
  "data": [
    {"smiles": "CC(C)[C@H](NC(=O)[C@H](CC(=O)O)NC(=O)CNC(=O)C1CCN(C(=N)N)CC1)C(=O)O", "note": "[1-Amidinopiperidine-4-Carboxylglycyl-L-Aspartyl-L-Valine]", "values": [
      {"measurement": "inhibition at 100 µM", "setting": "[1]", "result": 92, "unit": "%"},
      {"measurement": "IC50", "setting": "[2]", "result": 1.8, "unit": "µM"}
    ]},
    {"smiles": "CC(C)[C@H](NC(=O)[C@H](CC(=O)O)NC(=O)CNC(=O)C1CCCN(C(=N)N)C1)C(=O)O", "note": "(stereo partly drawn) [N-amidinopiperidine-3-carboxylglycyl-L-aspartyl-L-valine]", "values": [
      {"measurement": "inhibition at 100 µM", "setting": "[1]", "result": 87, "unit": "%"},
      {"measurement": "IC50", "setting": "[2]", "result": 10.5, "unit": "µM"}
    ]},
    {"smiles": "CC(C)[C@H](NC(=O)[C@H](CC(=O)O)NC(=O)CNC(=O)C1CCCNC1)C(=O)O", "note": "(stereo partly drawn) [Piperidine-3-Carboxylglycyl-L-Aspartyl-L-Valine]", "values": [
      {"measurement": "inhibition at 100 µM", "setting": "[1]", "result": 78, "unit": "%"},
      {"measurement": "IC50", "setting": "[2]", "result": "> 64", "unit": "µM"}
    ]},
    {"smiles": "CC(C)[C@H](NC(=O)[C@H](CC(=O)O)NC(=O)CNC(=O)C1CCNCC1)C(=O)O", "note": "[Piperidine-4-carboxylglycyl-L-Aspartyl-L-Valine] (H-[Inp]GDV-OH)", "values": [
      {"measurement": "inhibition at 100 µM", "setting": "[1]", "result": 86, "unit": "%"},
      {"measurement": "IC50", "setting": "[2]", "result": 10.5, "unit": "µM"}
    ]}
  ]
}
